The source of these data is article PMC10144134, “Characterization of Potent ABCG2 Inhibitor Derived from Chromone: From the Mechanism of Inhibition to Human Extracellular Vesicles for Drug Delivery” (Pharmaceutics, 2023).

pIC50: −log10 of the molar value.

On the set-up of data set [1]: method as in PMID 17317193. The conditions noted are these: cited from earlier work.
Data set [2] deals with implanted ABCG2-positive tumors. As to conditions: cited from earlier work.
In another data set the target is T1, ABCG2 (Homo sapiens, UniProt Q9UNQ0).
T1 sequence (Q9UNQ0 1-655): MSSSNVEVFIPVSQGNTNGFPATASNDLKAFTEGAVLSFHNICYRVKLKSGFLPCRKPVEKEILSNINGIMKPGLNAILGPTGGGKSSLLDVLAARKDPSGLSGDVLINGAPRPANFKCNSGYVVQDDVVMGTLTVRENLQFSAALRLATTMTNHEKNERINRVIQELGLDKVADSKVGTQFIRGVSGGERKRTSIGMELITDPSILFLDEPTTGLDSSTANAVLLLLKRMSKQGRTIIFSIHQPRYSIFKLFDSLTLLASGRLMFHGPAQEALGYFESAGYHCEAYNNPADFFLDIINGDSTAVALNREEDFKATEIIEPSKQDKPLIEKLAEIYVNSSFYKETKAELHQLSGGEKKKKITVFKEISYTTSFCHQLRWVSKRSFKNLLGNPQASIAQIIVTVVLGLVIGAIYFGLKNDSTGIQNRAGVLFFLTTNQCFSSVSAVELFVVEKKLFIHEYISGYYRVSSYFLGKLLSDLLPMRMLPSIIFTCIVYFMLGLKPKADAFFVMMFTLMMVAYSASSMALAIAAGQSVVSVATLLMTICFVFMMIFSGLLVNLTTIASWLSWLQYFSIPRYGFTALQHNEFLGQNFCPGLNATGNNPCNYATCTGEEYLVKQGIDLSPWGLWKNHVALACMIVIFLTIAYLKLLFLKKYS
On the set-up: expressed in transfected cells; host or cells: HEK293 (stably transfected, G418 selection; gift of Dr. Attilio Di Pietro). As to conditions: read-out: IC50 of ABCG2 inhibition; cited from earlier work.

The nature of the next data set: Water solubility. It counts as physicochemical. The conditions noted are these: aqueous.
The test system of the next data set is HEK293 WT cells. Kind of data set: MTT cell viability, HEK293 WT. As to conditions: SN38 10 nM, 72 h. It counts as cell-based, human. How it is done:
(§1) HEK293 WT (wild type) and HEK293-ABCG2 cells were seeded (2.5 × 10^4 cell/well) into a 96-well plate and incubated for 24 h. Cells were concomitantly treated with EVs […]C4a (0.1, 1 and 10 μM) and SN-38 (10 nM) for 72 h. After this period, the medium was removed, cells were washed with PBS (100 μL) and incubated with MTT solution (100 μL of solution 0.5 mg/mL in PBS) for 4 h. Then, the solution was removed, and the formazan crystals were dissolved with 100 μL of ethanol/DMSO (1:1). The absorbance was measured using a microplate reader at 595 nm (Bio-Rad iMark, Hercules, CA, USA).

The test system of another data set is HEK293-ABCG2 cells. The data set is described as follows: MTT chemosensitization assay, HEK293-ABCG2. It counts as cell-based, human. The conditions noted are these: SN38 10 nM, 72 h, MTT. Here is the method:
as §1
For orientation: Tetrazolium dyes change colour on reduction, which living cells bring about.

One may read the pIC50 as the IC50 on a negative log10 scale, so that one unit is a factor of ten. For the compound `COc1ccc2c(=O)c3cccc(C(=O)NCc4ccc(OC)c(OC)c4)c3[nH]c2c1` [MBLI-87], in data set [1], the cytotoxicity entry is reported as “low cytotoxicity”. Further, the “sensitization of xenografic tumors overexpressing ABCG2 to irinotecan” value in data set [2] is “successfully sensitized xenografic tumors overexpressing ABCG2 to irinotecan”. For the same compound, the pIC50 on ABCG2 is 6.35.

With `COc1ccc2[nH]cc(CCNC(=O)c3cc(=O)c4c(OCc5ccc(Br)cc5)cccc4o3)c2c1` [MBL-II-141], the solubility result in the data set “Water solubility” is listed as “low solubility”. In addition, the “growth of implanted ABCG2-positive tumors in mice” value in data set [2] (in combination with irinotecan) is given as “inhibiting the growth of implanted ABCG2-positive tumors”. In addition, the pIC50 on ABCG2 is 6.59.

For `CCc1c2c(nc3ccc(O)cc13)-c1cc3c(c(=O)n1C2)COC(=O)[C@]3(O)CC` [SN38, reference compound], the “cytotoxic effect on wild-type HEK293 cells” value with HEK293 WT cells is recorded as “highly cytotoxic”. Further, in the data set on HEK293-ABCG2 cells, the “cell viability of cells overexpressing ABCG2” value is recorded as “mild decrease in the cell viability”.
